Assay results: patent publication US9586904B2, “Preparation of (−)-huperzine A” (priority 2013, dated 2017)

Test: Solubility of huperzine A-chiral acid salts and of (±)-huperzine A in solvents
Assay type: physicochemical
Excerpt: This invention first prepared a series of huperzine A-chiral acid salts.

Which “solubility in most solvents” value (most solvents) does the source give for (±)-huperzine A here?
The value was “rather poorly soluble”.

And the “solubility in various single solvents” value (various single solvents, during salt formation)?
The value was “very poor”.
